Holding throughout (type): biochemical
Assay [1] deals with T1, TYK2 (aa 871-1187, catalytic domain, GST-tag) (Homo sapiens, UniProt P29597).
T1 construct: JAK1 (aa 850-1154) and TYK2 (aa 871-1187) are expressed with an N-terminally fused GST-tag; GST (N); purchased Carna Biosciences, Inc; host or cells: baculovirus expression system
T1 sequence (P29597 871-1187): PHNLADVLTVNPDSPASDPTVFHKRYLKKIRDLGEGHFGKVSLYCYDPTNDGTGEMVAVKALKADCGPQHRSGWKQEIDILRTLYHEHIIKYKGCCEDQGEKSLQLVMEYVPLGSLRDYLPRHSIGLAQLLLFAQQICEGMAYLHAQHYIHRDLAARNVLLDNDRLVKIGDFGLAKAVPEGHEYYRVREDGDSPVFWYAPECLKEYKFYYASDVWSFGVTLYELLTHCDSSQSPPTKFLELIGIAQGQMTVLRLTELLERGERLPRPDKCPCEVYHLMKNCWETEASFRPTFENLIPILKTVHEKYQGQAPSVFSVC
Kind of assay: JAK kinase assay (HTRF, phosphorylation of TK substrate-biotin), TYK2. The note with it: ATP at Km (13 μM). The protocol: (§1) Human baculovirus-expressed JAK1, 2, 3 and TYK2 were purchased from Carna Biosciences, Inc. All four purified enzymes contain only the catalytic domain. JAK1 (aa 850-1154) and TYK2 (aa 871-1187) are expressed with an N-terminally fused GST-tag, and JAK2 and JAK3 with an N-terminally fused His-tag.
(§2) Inhibition of phosphorylation of a synthetic peptide was measured in an HTRF-based assay using the TK substrate-Biotin from the Cisbio HTRFKinEASE TK kit. First, 2 μl of TK solution (TK substrate-biotin in kinase buffer [1× enzymatic buffer from HTRFKinEASE TK kit, 1 mM DTT]) is added to a plate containing 1 μl prediluted compound (final assay concentration DMSO: 0.75%). Then, 5 μl kinase-ATP mix (prepared in kinase buffer) is added to the wells and the plates are incubated at RT for 20-30 min. For all four kinases a concentration of ATP that corresponded to the Km for ATP was used. The final concentrations of buffers, substrate, kinase and ATP were: JAK1: 50 mM Hepes buffer pH 7.0, 0.01% BSA, 10 mM MgCl2, 1 mM DTT, 7 μM ATP, 50 nM SEB, 1 μM TK Substrate-Biotin and 5 ng JAK1; JAK2: 50 mM Hepes buffer pH 7.0, 0.01% BSA, 5 mM MgCl2, 1 mM DTT, 4 μM ATP, 1 μM TK Substrate-Biotin and 0.1 ng JAK2; JAK3: 50 mM Hepes buffer pH 7.0, 0.01% BSA, 5 mM MgCl2, 1 mM DTT, 2 μM ATP, 1 μM TK Substrate-Biotin and 0.3 ng JAK3; TYK2: 50 mM Hepes buffer pH 7.0, 0.01% BSA, 5 mM MgCl2, 1 mM DTT, 13 μM ATP, 50 nM SEB, 1 μM TK Substrate-Biotin and 0.8 ng TYK2. Thereafter, the kinase reaction is stopped by adding 4 μl detection mix (final concentrations: 50 mM Hepes buffer pH 7.0, 0.01% BSA, 0.8 M KF, 20 mM EDTA, 42 nM Streptavidin-XL665 and 1:400 STK Ab Cryptate) and the plates are incubated overnight in the dark. The HTRF signal is read using an Envision plate reader.
(§3) In Table 1 selected JAK kinase inhibitory activities are listed with the following indicators: I: EC50<100 nM, II: 100 nM≦EC50≦500 nM and III: EC50>500 nM

Assay [2] has as its target T2, JAK1 (aa 850-1154, catalytic domain, GST-tag) (Homo sapiens, UniProt P23458).
T2 construct: JAK1 (aa 850-1154) and TYK2 (aa 871-1187) are expressed with an N-terminally fused GST-tag; GST (N); purchased Carna Biosciences, Inc; host or cells: baculovirus expression system
Kind of assay: JAK kinase assay (HTRF, phosphorylation of TK substrate-biotin), JAK1. The conditions noted are these: ATP at Km (7 μM). The protocol:
as §1, §2, §3

For assay [3], the target named is T3, JAK2 (catalytic domain, His-tag) (Homo sapiens, UniProt O60674).
T3 construct: All four purified enzymes contain only the catalytic domain; His (N); purchased Carna Biosciences, Inc; host or cells: baculovirus expression system
The experiment in a line: JAK kinase assay (HTRF, phosphorylation of TK substrate-biotin), JAK2. The conditions noted are these: ATP at Km (4 μM). The procedure:
as §1, §2, §3
In general terms: In TR-FRET formats the signal depends on donor and acceptor labels being close together.

Assay [4] deals with T4, JAK3 (catalytic domain, His-tag) (Homo sapiens, UniProt P52333).
T4 construct: All four purified enzymes contain only the catalytic domain; His (N); purchased Carna Biosciences, Inc; host or cells: baculovirus expression system
Kind of assay: JAK kinase assay (HTRF, phosphorylation of TK substrate-biotin), JAK3. The conditions noted are these: ATP at Km (2 μM). The procedure:
as §1, §2, §3

Setting [5] is: read-out: TYK2 kinase inhibitory activity (EC50 indicator).
The mark [6] stands for this setting: read-out: JAK1 kinase inhibitory activity (EC50 indicator).
The mark [7] stands for this setting: read-out: JAK2 kinase inhibitory activity (EC50 indicator).
The mark [8] stands for this setting: read-out: JAK3 kinase inhibitory activity (EC50 indicator).
[9] abbreviates: HTRF assay, read-out: TYK2 kinase inhibitory activity (EC50 indicator).
Where [10] appears, read: HTRF assay, read-out: JAK1 kinase inhibitory activity (EC50 indicator).
Setting [11] is: HTRF assay, read-out: JAK2 kinase inhibitory activity (EC50 indicator).
[12] abbreviates: HTRF assay, read-out: JAK3 kinase inhibitory activity (EC50 indicator).

Like-named read-outs stand apart in the source and are kept apart here.

T2 sequence (P23458 850-1154): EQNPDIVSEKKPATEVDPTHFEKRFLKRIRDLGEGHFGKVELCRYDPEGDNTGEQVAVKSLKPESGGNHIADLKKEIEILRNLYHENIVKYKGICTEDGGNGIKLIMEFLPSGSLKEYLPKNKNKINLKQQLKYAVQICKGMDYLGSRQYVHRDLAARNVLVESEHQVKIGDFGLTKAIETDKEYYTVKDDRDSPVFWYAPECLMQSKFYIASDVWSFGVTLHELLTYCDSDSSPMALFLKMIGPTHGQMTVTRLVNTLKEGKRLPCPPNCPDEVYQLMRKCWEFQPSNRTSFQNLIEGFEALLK
T4 sequence (P52333 822-1111 limits assumed): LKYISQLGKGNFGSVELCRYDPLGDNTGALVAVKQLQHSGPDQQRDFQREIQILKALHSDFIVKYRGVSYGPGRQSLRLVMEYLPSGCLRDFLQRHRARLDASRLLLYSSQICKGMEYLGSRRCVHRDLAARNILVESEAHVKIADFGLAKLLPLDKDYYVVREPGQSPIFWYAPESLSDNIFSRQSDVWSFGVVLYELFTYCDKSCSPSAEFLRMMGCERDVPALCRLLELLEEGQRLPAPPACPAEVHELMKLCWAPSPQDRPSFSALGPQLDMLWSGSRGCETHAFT
T3 sequence (O60674 849-1124 limits assumed): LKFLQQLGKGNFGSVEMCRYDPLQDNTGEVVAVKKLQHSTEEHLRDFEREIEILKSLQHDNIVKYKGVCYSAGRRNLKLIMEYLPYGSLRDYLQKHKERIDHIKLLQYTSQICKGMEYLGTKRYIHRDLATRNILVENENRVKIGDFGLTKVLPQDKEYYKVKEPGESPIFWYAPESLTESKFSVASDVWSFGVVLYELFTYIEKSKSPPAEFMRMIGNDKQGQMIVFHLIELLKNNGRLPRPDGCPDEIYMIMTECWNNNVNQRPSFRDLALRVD

Broadly, the EC50 is the midpoint of the concentration-response curve. Consider `CCCS(=O)(=O)N1[C@@H]2CC[C@H]1CN(c1ncnc3[nH]ccc13)C2` [Example 51, 4-[8-(Propane-1-sulfonyl)-3,8-diaza-bicyclo[3.2.1]oct-3-yl]-7H-pyrrolo[2,3-d]pyrimidine], for which the EC50 is greater than 500 nM in assay [1] (setting [5]), 100 to 500 nM in assay [2] (setting [6]), 100 to 500 nM in assay [3] (setting [7]) and greater than 500 nM in assay [4] (setting [8]).

As for `O=C(Cc1ccc(C(F)(F)F)cc1)N1CCN(c2ncnc3[nH]cc(Cl)c23)CC12CC2` [Example 321, 1-[7-(5-Chloro-7H-pyrrolo[2,3-d]pyrimidin-4-yl)-4,7-diaza-spiro[2.5]oct-4-yl]-2-(4-trifluoromethyl-phenyl)-ethanone], the concentration giving a half-maximal response (EC50) in assay [1] (setting [9]) is greater than 500 nM; in assay [2] (setting [10]), 100 to 500 nM; in assay [3] (setting [11]), 100 to 500 nM; in assay [4] (setting [12]) it was less than 100 nM.

As to `CC(C)(C)OC(=O)N1CCN(c2ncnc3[nH]ccc23)CC12CC2` [Example 45, 7-(7H-pyrrolo[2,3-d]pyrimidin-4-yl)-4,7-diazaspiro[2.5]octane-4-carboxylic acid tert-butyl ester], the EC50 was greater than 500 nM in assay [1] (setting [5]), less than 100 nM in assay [2] (setting [6]), less than 100 nM in assay [3] (setting [7]) and less than 100 nM in assay [4] (setting [8]).

For the compound `O=C(c1cccc2[nH]ccc12)N1[C@@H]2CC[C@H]1CN(c1ncnc3[nH]ccc13)C2` [Example 344, (1H-Indol-4-yl)-[3-(7H-pyrrolo[2,3-d]pyrimidin-4-yl)-3,8-diaza-bicyclo[3.2.1]oct-8-yl]-methanone], the EC50 was 100 to 500 nM in assay [1] (setting [9]), 100 to 500 nM in assay [2] (setting [10]), less than 100 nM in assay [3] (setting [11]) and less than 100 nM in assay [4] (setting [12]).

`COc1cnc2[nH]ccc2c1N1CCN(C(=O)c2ccccc2)C2(CC2)C1` [Example 283, [7-(5-Methoxy-1H-pyrrolo[2,3-b]pyridin-4-yl)-4,7-diaza-spiro[2.5]oct-4-yl]-phenyl-methanone]: the EC50 in assay [1] (setting [9]) is greater than 500 nM; in assay [2] (setting [10]) it was greater than 500 nM; in assay [3] (setting [11]), 100 to 500 nM; in assay [4] (setting [12]), 100 to 500 nM.

`Cc1c(C(=O)N2CCN(c3ncnc4[nH]ccc34)CC23CC3)[nH]c2ccc(F)cc12` [Example 185, (5-Fluoro-3-methyl-1H-indol-2-yl)-[7-(7H-pyrrolo[2,3-d]pyrimidin-4-yl)-4,7-diaza-spiro[2.5]oct-4-yl]-methanone]: the EC50 in assay [1] (setting [5]) is greater than 500 nM; in assay [2] (setting [6]) it was 100 to 500 nM; in assay [3] (setting [7]), 100 to 500 nM; in assay [4] (setting [8]), greater than 500 nM.

Turning to `O=C(c1ccc(-c2ccccc2)cc1)N1CCN(c2ncnc3[nH]ccc23)CC12CC2` [Example 5, Biphenyl-4-yl-[7-(7H-pyrrolo[2,3-d]pyrimidin-4-yl)-4,7-diazaspiro[2.5]oct-4-yl]methanone], the EC50 in assay [1] (setting [5]) is greater than 500 nM; in assay [2] (setting [6]) it was less than 100 nM; in assay [3] (setting [7]), less than 100 nM; in assay [4] (setting [8]), 100 to 500 nM.

In the case of `O=C(NCCc1ccccc1)N1CCN(c2ncnc3[nH]ccc23)CC12CC2` [Example 445, 7-(7H-Pyrrolo[2,3-d]pyrimidin-4-yl)-4,7-diaza-spiro[2.5]octane-4-carboxylic acid phenethyl-amide], the EC50 in assay [1] (HTRF assay, read-out: TYK2 kinase inhibitory activity (EC50)) is greater than 500 nM; in assay [2] (HTRF assay, read-out: JAK1 kinase inhibitory activity (EC50)), less than 100 nM; in assay [3] (HTRF assay, read-out: JAK2 kinase inhibitory activity (EC50)) it was less than 100 nM; in assay [4] (HTRF assay, read-out: JAK3 kinase inhibitory activity (EC50)) it was 100 to 500 nM.

In the case of `O=C(c1cc2ccccc2[nH]1)N1[C@@H]2CC[C@H]1CN(c1ncnc3[nH]ccc13)C2` [Example 348, (1H-Indol-2-yl)-[3-(7H-pyrrolo[2,3-d]pyrimidin-4-yl)-3,8-diaza-bicyclo[3.2.1]oct-8-yl]-methanone], the concentration giving a half-maximal response (EC50) is greater than 500 nM in assay [1] (setting [9]), less than 100 nM in assay [2] (setting [10]), less than 100 nM in assay [3] (setting [11]) and less than 100 nM in assay [4] (setting [12]).

On to `O=C(Cc1ccncc1)N1CCN(c2ncnc3[nH]ccc23)CC12CC2` [Example 21, 2-Pyridin-4-yl-1-[7-(7H-pyrrolo[2,3-d]pyrimidin-4-yl)-4,7-diazaspiro[2.5]oct-4-yl]ethanone], for which the half-maximal effective concentration (EC50) in assay [1] (setting [5]) was greater than 500 nM; in assay [2] (setting [6]), less than 100 nM; in assay [3] (setting [7]), less than 100 nM; in assay [4] (setting [8]) it was 100 to 500 nM.

As for `N#CCCC(=O)N1CCN(c2nc(N)nc3[nH]ccc23)CC12CC2` [Example 313, 4-[7-(2-Amino-7H-pyrrolo[2,3-d]pyrimidin-4-yl)-4,7-diaza-spiro[2.5]oct-4-yl]-4-oxo-butyronitrile], the EC50 in assay [1] (setting [9]) is 100 to 500 nM; in assay [2] (setting [10]), less than 100 nM; in assay [3] (setting [11]) it was less than 100 nM; in assay [4] (setting [12]), less than 100 nM.

For the compound `NS(=O)(=O)c1cnn(CC(=O)N2CCN(c3ncnc4[nH]ccc34)CC23CC3)c1` [Example 412, 1-{2-Oxo-2-[7-(7H-pyrrolo[2,3-d]pyrimidin-4-yl)-4,7-diaza-spiro[2.5]oct-4-yl]-ethyl}-1H-pyrazole-4-sulfonic acid amide], the half-maximal effective concentration (EC50) in assay [1] (setting [9]) was greater than 500 nM; in assay [2] (setting [10]), less than 100 nM; in assay [3] (setting [11]) it was less than 100 nM; in assay [4] (setting [12]), less than 100 nM.

`N#CC1CCN(C(=O)C2(C(=O)N3CCN(c4ncnc5[nH]ccc45)CC34CC4)CC2)C1` (stereo not shown) [Example 88, 1-{1-[7-(7H-Pyrrolo[2,3-d]pyrimidin-4-yl)-4,7-diaza-spiro[2.5]octane-4-carbonyl]-cyclopropanecarbonyl}-pyrrolidine-3-carbonitrile]: the EC50 in assay [1] (setting [5]) was greater than 500 nM; in assay [2] (setting [6]), greater than 500 nM; in assay [3] (setting [7]) it was 100 to 500 nM; in assay [4] (setting [8]), greater than 500 nM.

In the case of `O=C(c1csc2ccccc12)N1CCN(c2ccnc3[nH]ccc23)CC12CC2` [Example 233, Benzo[b]thiophen-3-yl-[7-(1H-pyrrolo[2,3-b]pyridin-4-yl)-4,7-diaza-spiro[2.5]oct-4-yl]-methanone], the concentration giving a half-maximal response (EC50) was greater than 500 nM in assay [1] (setting [9]), 100 to 500 nM in assay [2] (setting [10]), less than 100 nM in assay [3] (setting [11]) and greater than 500 nM in assay [4] (setting [12]).

On to `N#Cc1csc(C(=O)N2C3CCC2CN(c2ncnc4[nH]ccc24)C3)c1` [Example 199, 5-[3-(7H-Pyrrolo[2,3-d]pyrimidin-4-yl)-3,8-diaza-bicyclo[3.2.1]octane-8-carbonyl]-thiophene-3-carbonitrile], for which the EC50 in assay [1] (setting [5]) is 100 to 500 nM; in assay [2] (setting [6]) it was less than 100 nM; in assay [3] (setting [7]), less than 100 nM; in assay [4] (setting [8]) it was less than 100 nM.

As to `O=C(C1Cc2ccccc21)N1C2CCC1CN(c1ncnc3[nH]ccc13)C2` (stereo not shown) [Example 132, Bicyclo[4.2.0]octa-1(6),2,4-trien-7-yl-[3-(7H-pyrrolo[2,3-d]pyrimidin-4-yl)-3,8-diaza-bicyclo[3.2.1]oct-8-yl]-methanone], the half-maximal effective concentration (EC50) in assay [1] (setting [5]) was greater than 500 nM; in assay [2] (setting [6]), 100 to 500 nM; in assay [3] (setting [7]) it was 100 to 500 nM; in assay [4] (setting [8]), 100 to 500 nM.

The record behind these values is US9346809B2 (LEO PHARMA A/S, priority 2009, dated 2016).
